US20140286964A1, “Methods for Identifying Janus Kinase (JAK) Modulators for Therapeutics” (NEW YORK UNIVERSITY, priority 2011, published 2014)

How the values were obtained:
[1] = biological target: T1, insulin receptor kinase (phosphorylated, active form) (Homo sapiens, UniProt P06213); test: mant-ATP binding to insulin receptor kinase (comparison)
T1 construct: the insulin receptor kinase (phosphorylated, active form)

JAK2 JH2 (JH2-Peak2) = biological target: T2, JAK2 JH2 (JH2-Peak2) (Homo sapiens, UniProt O60674); test: Mant-ATP binding assay (fluorescence) with JH2-Peak2
T2 construct: We produced and purified human Jak2 JH2, residues 513-824, as described previously; 6xHis (C, cleaved yes); made in house; host or cells: Sf9 insect cells (baculovirus, pFASTBAC1)
Protocol: FIG. 13 provides an analysis of JAK2 JH2 autophosphorylation and ATP binding activity. (a) Time-course kinase assay of purified JH2-Peak1 and JH2-Peak2. (b) Time-course kinase assay of purified JH2 S523A and Y570F mutants compared to JH2-Peak2. (c) Fluorescence measurement of ATP binding assay of JAK2 JH2-Peak2. (d) Kd measurement of mant-ATP binding to JH2-Peak2. Graph, mean±s.d. of three independent experiments.
The fluorescence intensity of mant-ATP (Invitrogen) complex with JH2 was measured using FluoroMax-2 spectrofluorimeter. Mant-ATP (1 μM) was added to a buffer solution (20 mM TRIS-HCl, pH 8, 200 mM NaCl, 10% (v/v) glycerol and 0.5 mM TCEP) along with 5 mM MnCl2 and 1 μM JH2 (from peak 2 fraction). The excitation and emission wavelengths were 280 nm and 440 nm, respectively, and emission was scanned from 400-500 nm. For kd measurements, increased concentration of purified JH2 (0.25 μM-6 μM) was added to buffer solution with 5 mM MnCl2 and 1 μM mant-ATP.
If the pseudokinase domain of JAK2 is an active protein kinase, utilizing ATP as a phosphate donor, it should bind ATP with a physiologic Kd value. The binding of ATP to JH2 of JAK2 was evaluated using the fluorescent ATP-analogue mant [2′-(3′)—O—(N-methylanthraniloy)]-ATP. […] Mant-ATP bound to JH2 with a Kd of ˜1 μM (FIG. 13d), which is ˜10% of the reported Kd for JH1 of JAK2 (Hall, et al., Protein Expr. Purif. 2010; 69: 54-63). […]

Jak2 JH2-WT = biological target: T3, Jak2 JH2-WT (Homo sapiens, UniProt O60674, F794H/W659A/W777A); test: mant-ATP binding (decrease of tryptophan emission by FRET) to JH2-WT; conditions: fluorescent ATP analog mant-ATP, FIG. 5
T3 construct: 6xHis (N); made in house; host or cells: baculovirus-infected Sf9 cells
Protocol: FIG. 5 depicts ATP binding to JH2-WT. The decrease of the tryptophan emission signal at 340 nm (excitation wavelength at 285 nm) resulting from FRET upon mant-ATP binding to JH2 was measured as a function of mant-ATP concentration. The plotted data points are an average of two experiments.
(§1) As a first step in characterizing the catalytic properties of Jak2 JH2, dissociation constants (Kd values) for ATP binding to JH2-WT and -VF were obtained using the fluorescent ATP analog mant-ATP.

Jak2 JH2-VF (V617F) = biological target: T4, Jak2 JH2-VF (V617F) (Homo sapiens, UniProt O60674, F794H/V617F/W777A); test: mant-ATP binding to JH2-VF; conditions: fluorescent ATP analog mant-ATP
T4 construct: 6xHis (N); made in house; host or cells: baculovirus-infected Sf9 cells
From the text: as §1

T2 sequence (O60674 513-824): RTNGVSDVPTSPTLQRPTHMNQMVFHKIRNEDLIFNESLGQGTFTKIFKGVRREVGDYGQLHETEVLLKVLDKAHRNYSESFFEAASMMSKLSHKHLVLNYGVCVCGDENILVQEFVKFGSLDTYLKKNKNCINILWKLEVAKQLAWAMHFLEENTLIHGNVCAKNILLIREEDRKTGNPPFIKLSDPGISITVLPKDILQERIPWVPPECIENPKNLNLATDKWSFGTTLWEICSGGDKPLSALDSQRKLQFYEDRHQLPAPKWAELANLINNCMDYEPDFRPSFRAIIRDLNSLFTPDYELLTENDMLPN
T1 sequence (P06213 1023-1298 limits assumed): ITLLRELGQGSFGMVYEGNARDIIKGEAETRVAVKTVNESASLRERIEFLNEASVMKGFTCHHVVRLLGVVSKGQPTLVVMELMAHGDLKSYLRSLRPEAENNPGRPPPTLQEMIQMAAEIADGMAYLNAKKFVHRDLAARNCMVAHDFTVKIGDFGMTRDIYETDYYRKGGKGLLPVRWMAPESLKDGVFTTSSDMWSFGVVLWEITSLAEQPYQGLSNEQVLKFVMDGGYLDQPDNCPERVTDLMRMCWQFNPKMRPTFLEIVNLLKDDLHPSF
T3 sequence (O60674 536-812 W659A/W777A/F794H): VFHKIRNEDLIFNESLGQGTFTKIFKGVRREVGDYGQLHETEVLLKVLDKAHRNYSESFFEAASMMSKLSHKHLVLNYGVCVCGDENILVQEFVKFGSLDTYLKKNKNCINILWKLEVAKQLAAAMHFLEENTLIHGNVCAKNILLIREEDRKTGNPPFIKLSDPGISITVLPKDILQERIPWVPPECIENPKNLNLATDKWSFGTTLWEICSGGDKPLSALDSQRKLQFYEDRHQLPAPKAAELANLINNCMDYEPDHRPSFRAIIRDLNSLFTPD
T4 sequence (O60674 536-812 V617F/W777A/F794H): as the sequence (O60674 536-812 W659A/W777A/F794H) above, with V82F, A124W counted along it

Kd fold higher than for JH2 ([1]; insulin receptor kinase Kd versus Jak2 JH2 Kd): ~30 fold
Kd ([1]; insulin receptor kinase, phosphorylated active form, same measurement): 14000 nM
Kd (JAK2 JH2 (JH2-Peak2); JH2-Peak2, 5 mM MnCl2, 1 μM mant-ATP, JH2 0.25-6 μM, FIG. 13d): ~1000 nM
Kd as percentage of the reported Kd for JH1 of JAK2 (JAK2 JH2 (JH2-Peak2); JH2 Kd versus literature Kd for JH1 (Hall et al. 2010)): ~10%
Kd (Jak2 JH2-WT): 82 nM
Kd (Jak2 JH2-VF (V617F)): 84 nM
Substance: mant [2′-(3′)—O—(N-methylanthraniloy)]-ATP [mant-ATP]
